Measured values reported in patent US20240197938A1, “ANTIMICROBIAL COMPOUNDS BASED ON GLUCOHEPTONIC ACIDS AND THEIR SALTS” (HARCROS CHEMICALS, INC., priority 2021, published 2024).

Key:
[1] = Conductivity testing (calculated CMC); type: physicochemical; details: for Calculated CMC, All Points: all data points; for Calculated CMC, Average: average of outer, inner, all points; for Calculated CMC, Inner Points: inner data points; for Calculated CMC, Outer Points: outer data points
Method: Conductivities were measured using a VWR 23609-216 Pure H2O Tester conductivity meter. The meter probe was submerged into the test solution and swirled gently. Once the meter settled, the value was recorded.
The conductivity of the solutions of Example 7 were tested at dilutions ranging from 0.1 M to 0.001 M. The data was plotted on a logarithmic scale and analyzed in the style of Heard and Ashworth. For each sample, three graphs were reported and fitted with a trend curve: outer data points, inner data points, all data points. […] An average CMC value was determined from the three trend samples (outer data points, inner data points, all data points) in order to more accuracy predict the CMC value.
LINEST was utilized to determine the slope and intercept for each line, and a combination of INTERCEPT and SLOPE was used to determine the intersection of the two fitted lines. The Critical Micelle Concentration (CMC) was determined for each of these plots by the intercept of the two lines. Set forth below in Table 5 is the calculated CMC for each graph and the average CMC.

[2] = Bubble pressure tensiometry (dynamic surface tension, calculated CMC); type: physicochemical; details: for Calculated CMC: bubble tensiometry
Method: Dynamic surface tensions of certain formulations were measured using a KRÜSS BP100 BPT Mobile bubble pressure tensiometer. Samples of the solution of Example 7 were tested by adding the test solution to a glass dish and lowering the disposable capillary tip and temperature probe into the solution. The dynamic setting was selected, and the instrument was set to collect 30 data points, the bubble age increasing from about 10 ms to about 30,000 ms.
Bubble tensiometry was used to calculate the Critical Micelle Concentration (CMC) value for each of the solutions.
FIG. 1 presents a comparison of the bubble age to surface tension for RM14A at CMC, sub-CMC, and super-CMC concentrations. FIG. 2 presents a comparison of the bubble age to surface tension for RM14B at CMC, sub-CMC, and super-CMC concentrations. FIG. 3 presents a comparison of the bubble age to surface tension for RM14C at CMC, sub-CMC, and super-CMC concentrations. FIG. 4 presents a comparison of the bubble age to surface tension for RM12A, RM13A, RM14A, and RM15A at super-CMC concentrations. FIG. 5 presents a comparison of the bubble age to surface tension for RM12A, RM13A, RM14A, and RM15A at CMC concentrations. FIG. 6 presents a comparison of the bubble age to surface tension for RM12A, RM13A, RM14A, and RM15A at CMC concentrations. FIG. 7 presents a comparison of bubble age to surface tension for RM12A, RM13A, RM14A, and RM15A at sub-CMC concentrations.

[3] = test system: Salmonella abony; assay: ASTM E2315-16 Time-Kill Procedure; type: cell-based; details: for Log Reduction: 30 seconds; for log reduction: 10 minutes
Method: (§1) Select compounds were tested for antimicrobial activity using ASTM method […]-16 (Standard Guide for Assessment of Antimicrobial Activity using a Time-Kill Procedure). Six microbes were tested: Candida albicans, Staphylococcus aureus, Staphylococcus epidermidis. Escherichia coli, Salmonella abony, and Listeria monocytogenes. Four chlorhexidine salts were tested: chlorhexidine di-α-glucoheptonate (Sample G), chlorhexidine di-β73-glucoheptonate (Sample H), chlorhexidine digluconate (Sample I), and chlorhexidine diacetate (Sample P). Both chlorhexidine diglucoheptonate salts were prepared at a 2:1 molar ratio of glucoheptonic acid to chlorhexidine. Dilutions of each salt were prepared using sterile water (20-30 ppm hardness), to achieve the desired wt. % concentration. Benzalkonium salts were also tested using the same procedure as set forth in Example 13. The samples were benzalkonium chloride (C12-C16) (Sample C), benzalkonium chloride (C12-C14) (Sample D), benzalkonium chloride in combination with a stoichiometric amount of α-glucoheptonate (Sample F), and benzalkonium chloride in combination with a molar excess of α-glucoheptonate (Sample N). Sample F was prepared by mixing and extensively heating a stoichiometric quantity (1:1) of sodium α-glucoheptonate with benzalkonium chloride, typified by the C12-14 alkyl chain. Sample N was prepared by simply blending benzalkonium chloride, typified by the C12-16 chain, with a molar excess of sodium α-glucoheptonate (1.6:1). Both Samples F and N contain sodium chloride.

[4] = test system: Listeria monocytogenes; assay: ASTM E2315-16 Time-Kill Procedure; type: cell-based; details: for Log Reduction: 30 seconds; for log reduction: 10 minutes
Method: as §1

[5] = test system: Escherichia coli; assay: ASTM E2315-16 Time-Kill Procedure; type: cell-based; details: for Log Reduction: 30 seconds; for log reduction: 10 minutes
Method: as §1

[6] = test system: Staphylococcus aureus; assay: ASTM E2315-16 Time-Kill Procedure; type: cell-based; details: for Log Reduction: 30 seconds; for log reduction: 10 minutes
Method: as §1, with “concentration. Two glucoheptonic acids were evaluated for antimicrobial activity against the same six microbes as Example 13. Sample L was α-glucoheptonic acid. Sample M was β73-glucoheptonic acid.” for “concentration.”

[7] = test system: Staphylococcus epidermidis; assay: ASTM E2315-16 Time-Kill Procedure; type: cell-based; details: for Log Reduction: 30 seconds; for log reduction: 10 minutes
Method: as §1, with “concentration. Two glucoheptonic acids were evaluated for antimicrobial activity against the same six microbes as Example 13. Sample L was α-glucoheptonic acid. Sample M was β73-glucoheptonic acid.” for “concentration.”

[8] = test system: Candida albicans; assay: ASTM E2315-16 Time-Kill Procedure; type: cell-based; details: for Log Reduction: 30 seconds; for log reduction: 10 minutes
Method: as §1, with “concentration. Two glucoheptonic acids were evaluated for antimicrobial activity against the same six microbes as Example 13. Sample L was α-glucoheptonic acid. Sample M was β73-glucoheptonic acid.” for “concentration.”

[9] = test system: all microbes (Candida albicans, Staphylococcus aureus, Staphylococcus epidermidis, Escherichia coli, Salmonella abony, Listeria monocytogenes); assay: ASTM E2315-16 Time-Kill Procedure, average across all microbes; type: cell-based; details: for Log Reduction, Average, all microbes: 30 seconds; for log reduction, Average, all microbes: 10 minutes
Method: as §1, with “concentration. Samples G, H, I, and P were also tested at a concentration of 0.60 wt % active and evaluated for the average Log Reduction in microbial population at 10 minutes, across all microbes. A further test was conducted at a concentration of 1.0 wt % active and evaluated for the average Log Reduction in microbial population at 10 minutes, across all microbes.” for “concentration.”, “chloride. A further antimicrobial test was conducted to determine the log reduction at 10 minutes. Samples C, D, F, and N are as defined above.” for “chloride.”

N=C(NCCCCCCNC(=N)NC(=N)Nc1ccc(Cl)cc1)NC(=N)Nc1ccc(Cl)cc1.O=C(O)[C@H](O)[C@@H](O)[C@H](O)[C@H](O)CO.O=C(O)[C@H](O)[C@@H](O)[C@H](O)[C@H](O)CO [RM12A, Chlorhexidine digluconate]
Calculated CMC, All Points [1]: 0.0133 M
Calculated CMC, Average [1]: 0.0126 M
Calculated CMC, Inner Points [1]: 0.0128 M
Calculated CMC, Outer Points [1]: 0.0118 M
Calculated CMC [2]: 0.0168 M

N=C(NCCCCCCNC(=N)NC(=N)Nc1ccc(Cl)cc1)NC(=N)Nc1ccc(Cl)cc1.O=C(O)[C@H](O)[C@@H](O)[C@H](O)[C@H](O)CO.O=C(O)[C@H](O)[C@@H](O)[C@H](O)[C@H](O)CO [RM12B, Chlorhexidine digluconate]
Calculated CMC, All Points [1]: 0.0133 M
Calculated CMC, Average [1]: 0.0127 M
Calculated CMC, Inner Points [1]: 0.0131 M
Calculated CMC, Outer Points [1]: 0.0117 M
Calculated CMC [2]: 0.0195 M

N=C(NCCCCCCNC(=N)NC(=N)Nc1ccc(Cl)cc1)NC(=N)Nc1ccc(Cl)cc1.O=C(O)[C@H](O)[C@@H](O)[C@H](O)[C@H](O)CO.O=C(O)[C@H](O)[C@@H](O)[C@H](O)[C@H](O)CO [RM12C, Chlorhexidine digluconate]
Calculated CMC, All Points [1]: 0.0133 M
Calculated CMC, Average [1]: 0.0131 M
Calculated CMC, Inner Points [1]: 0.0143 M
Calculated CMC, Outer Points [1]: 0.0116 M
Calculated CMC [2]: 0.0195 M

N=C(NCCCCCCNC(=N)NC(=N)Nc1ccc(Cl)cc1)NC(=N)Nc1ccc(Cl)cc1.O=C(O)C(O)C(O)C(O)C(O)C(O)CO.O=C(O)C(O)C(O)C(O)C(O)C(O)CO [RM13A, Chlorhexidine di-α-glucoheptonate]
Calculated CMC, All Points [1]: 0.0132 M
Calculated CMC, Average [1]: 0.0123 M
Calculated CMC, Inner Points [1]: 0.0122 M
Calculated CMC, Outer Points [1]: 0.0115 M
Calculated CMC [2]: 0.0200 M

N=C(NCCCCCCNC(=N)NC(=N)Nc1ccc(Cl)cc1)NC(=N)Nc1ccc(Cl)cc1.O=C(O)C(O)C(O)C(O)C(O)C(O)CO.O=C(O)C(O)C(O)C(O)C(O)C(O)CO [RM13B, Chlorhexidine di-α-glucoheptonate]
Calculated CMC, All Points [1]: 0.0132 M
Calculated CMC, Average [1]: 0.0126 M
Calculated CMC, Inner Points [1]: 0.0131 M
Calculated CMC, Outer Points [1]: 0.0116 M
Calculated CMC [2]: 0.0167 M

N=C(NCCCCCCNC(=N)NC(=N)Nc1ccc(Cl)cc1)NC(=N)Nc1ccc(Cl)cc1.O=C(O)C(O)C(O)C(O)C(O)C(O)CO.O=C(O)C(O)C(O)C(O)C(O)C(O)CO [RM13C, Chlorhexidine di-α-glucoheptonate]
Calculated CMC, All Points [1]: 0.0130 M
Calculated CMC, Average [1]: 0.0126 M
Calculated CMC, Inner Points [1]: 0.0134 M
Calculated CMC, Outer Points [1]: 0.0113 M
Calculated CMC [2]: 0.0198 M

N=C(NCCCCCCNC(=N)NC(=N)Nc1ccc(Cl)cc1)NC(=N)Nc1ccc(Cl)cc1.O=C(O)C(O)C(O)C(O)C(O)C(O)CO.O=C(O)C(O)C(O)C(O)C(O)C(O)CO [RM15, chlorhexidine di-β81-glucoheptonate]
surface tension versus bubble age (rate and magnitude of reduction) ([2]; sub-CMC, CMC and super-CMC concentrations, FIGS. 1-7): fall more rapidly and to a lower value than either the di-α-glucoheptonate or the comparative digluconate salt

benzalkonium chloride (C12-C16) [Sample C]
Log Reduction ([3]; 0.10%): 3.04
Log Reduction ([3]; 0.25%): 3.34
Log Reduction ([3]; 0.50%): 3.39
log reduction ([3]; 0.10%): 4.44
log reduction ([3]; 0.25%): 4.50
log reduction ([3]; 0.50%): 4.50
Log Reduction ([4]; 0.10%): 3.72
Log Reduction ([4]; 0.25%): 3.87
Log Reduction ([4]; 0.50%): 3.99
log reduction ([4]; 0.10%): 5.60
log reduction ([4]; 0.25%): 5.99
log reduction ([4]; 0.50%): 6.02
Log Reduction ([5]; 0.10%): 3.01
Log Reduction ([5]; 0.25%): 3.29
Log Reduction ([5]; 0.50%): 3.52
log reduction ([5]; 0.10%): 4.59
log reduction ([5]; 0.25%): 5.07
log reduction ([5]; 0.50%): 5.07
Log Reduction ([6]; 0.10%): 3.89
Log Reduction ([6]; 0.25%): 4.19
Log Reduction ([6]; 0.50%): 4.37
log reduction ([6]; 0.10%): 5.86
log reduction ([6]; 0.25%): 6.07
log reduction ([6]; 0.50%): 5.05
Log Reduction ([7]; 0.10%): 3.39
Log Reduction ([7]; 0.25%): 3.50
Log Reduction ([7]; 0.50%): 3.65
log reduction ([7]; 0.10%): 4.79
log reduction ([7]; 0.25%): 5.05
log reduction ([7]; 0.50%): 5.05
Log Reduction ([8]; 0.10%): 4.18
Log Reduction ([8]; 0.25%): 4.35
Log Reduction ([8]; 0.50%): 4.56
log reduction ([8]; 0.10%): 5.95
log reduction ([8]; 0.25%): 6.35
log reduction ([8]; 0.50%): 6.43
Log Reduction, Average, all microbes ([9]; 0.10%): 3.54
Log Reduction, Average, all microbes ([9]; 0.25%): 3.76
Log Reduction, Average, all microbes ([9]; 0.50%): 3.91
log reduction, Average, all microbes ([9]; 0.10%): 5.21
log reduction, Average, all microbes ([9]; 0.25%): 5.51
log reduction, Average, all microbes ([9]; 0.50%): 5.35
